The conditions of one data set: acidic group.
A word on the pKa: it is the pH at which an ionisable group is half protonated. High values mean a group that holds its proton tightly, low ones a group that gives up its proton readily. The compound `O=C(O)c1cc([N+](=O)[O-])cs1` had a pKa of 2.83. Still for that read-out and setting: the figure for `Nc1ncccc1O` is 9.5. Still for that read-out and setting: the figure for `Oc1cc(-c2ccccc2)n[nH]1` is 11.4; for `C#CCO` it is 13.3. On the same count and under the same terms, the figure for `O=C1CCc2ccc([N+](=O)[O-])cc2C1` is 11.8; for `Oc1ccccc1Cl` it is 8.4; for `C=C(C)/C(C)=C(\C)O` it is 12.

In the case of `O=C(O)c1cccc2ccc[nH+]c12`, the pKa turned out to be 1.9. On the same count and under the same terms, for `C[NH+](C)Cc1cc(Br)ccc1O` the value was 7.58; for `CCC(=O)NOC(=O)/C=C/c1ccccc1`, 6.8; for `Cc1cc(O)ccc1/N=N/c1ccc2c(c1)Cc1ccccc1-2`, 10.3. Still for that read-out and setting: the figure for `CC([NH3+])C(=O)O` (stereo not given) is 2.36; for `CC(C)(S)[C@@H](C(=O)O)n1cc[nH+]c1Cc1ccccc1` it is 2.81.

`O=C(CC(=O)c1ccccc1)Nc1ccccc1[N+](=O)[O-]`: the pKa is 9.54. Same read-out and setting: the figure for `[NH3+]CC/C=C/C(=O)O` is 3.83; for `[NH3+]CCCCCCC#CC#CCCC(=O)O` it is 4.21; for `CCCCc1c(-c2ccccc2)n[nH]c1O` it is 8.2.

`C[n+]1ccc2cccc(O)c2c1` displayed a pKa of 5.81. The same measure, in the same setting: for `COC(=O)c1cccc(NC=S)c1` the value was 10.8; for `COP(=O)(O)NS(C)(=O)=O`, 1.16. On the same count and under the same terms, for `O=C(O)C1(C(=O)O)CC1` the value was 1.92; for `CSc1ccccc1C(=O)O`, 3.89; for `O=C(NO)c1ccccc1O`, 7.39. Same read-out and setting: for `N#CCCNC(CC(N)=O)C(=O)O` (stereo not given) the value was 6.46; for `NC(=O)C(CCCCC(=O)O)c1ccccc1` (stereo not given), 4.79; for `Cc1ccc(CCC(=O)O)cc1`, 4.74. Compound `CCOc1ccccc1C(=O)O` returned a pKa of 4.18. Same read-out and setting: the figure for `COC(=O)CC(=N/O)/C(C)=N/O` is 9.77. The same measure, in the same setting: for `OCc1nc2ccccc2[nH]1` the value was 12.1. The same measure, in the same setting: for `CC(=O)CC(=O)C(C)C` the value was 9.46. In turn, `Nc1ccc([N+](=O)[O-])c(B(O)O)c1` showed a pKa of 10. The same measure, in the same setting: the figure for `Cc1cc2nc3ccc(N(C)C)cc3nc2cc1N` is 14.7; for `CCC[NH2+]CC(=O)O` it is 2.31; for `Cc1ccc(O)c(C(=O)[O-])c1` it is 14.

For `NC(=O)c1ccc(N)cc1O`, the pKa was 9.12. Still for that read-out and setting: the figure for `CN(C)c1ccc(/C=N/O)cc1` is 11.3. The same measure, in the same setting: the figure for `CCCCCCCCC(=O)OO` is 8.23.

In turn, `Cc1ccc(S(=O)(=O)NC(=O)OC(C)(C)C)cc1` gave a pKa of 5.05.

In the case of `C[C@H](C1CC1C(=O)O)[C@H]1CC[C@H]2[C@@H]3[C@@H](O)C[C@@H]4C[C@H](O)CC[C@]4(C)[C@H]3CC[C@]12C` (stereo not given in full), the pKa came out at 5.01. Compound `Cc1nnc(S)n1N` returned a pKa of 7.97. For `Cc1ccc(C(=O)O)c(C)c1`, the pKa is 4.18. Same read-out and setting: for `O=C(O)CNC(=O)c1ccccc1O` the value was 3.63; for `O=[N+]([O-])/C=C/c1cccc(O)c1`, 9.05; for `O=c1cc(-c2ccccc2)oc2ccc(O)cc12`, 9.09.

In turn, `C[n+]1cccc(/C=C(/O)c2ccccc2)c1` returned a pKa of 6.75.

Still in this data set, the particulars now being: basic group.
In turn, `Cc1c2ccccc2c(CN2CCOCC2)c2ccccc12` came in with a pKa of 6.6. On to `Cc1cc(-c2ccc([NH3+])c(C)c2)ccc1N`, for which the pKa was 3.38. Still for that read-out and setting: for `Nc1ccc2c(c1)-c1ccccc1C2` the value was 4.68; for `CCOC(=O)c1ccc(N)cc1`, 2.58. In turn, `Cc1cc([S-])[nH+]cn1` gave a pKa of 1.8. On the same count and under the same terms, the figure for `NNC=O` is 2.81.

In turn, `N[C@H]1CCc2ccccc21` registered a pKa of 9.21. Compound `N[C@H]1CCC[C@H]1C(=O)Oc1ccc([N+](=O)[O-])cc1` yielded a pKa of 8.36. The compound `CCc1cc(C)nnc1C` returned a pKa of 4.73.

Consider `CN1[C@@H]2C[C@@H]3C[C@H]1[C@@H](O)[C@H]2O3`, for which the pKa is 8.2.

For the compound `C#C[C@]1(O)C[C@@H](C)N[C@@H]2CCCC[C@H]21`, the pKa came to 9.73. Still for that read-out and setting: for `CN(C)c1cccc(Cl)c1` the value was 3.83; for `CSc1nc(C)cc(=O)n1C`, 0.9; for `CN(CC[NH+](C)C)CC[NH+](C)C`, 2.57. Same read-out and setting: the figure for `CCCCCCCCCCCCCCCCN` is 10.6; for `OCCc1ccncc1` it is 5.68; for `CCOc1cccc(N)c1` it is 4.15. On the same count and under the same terms, for `CN(C)c1ccc(C(O)c2ccc(N(C)C)cc2)cc1` the value was 5.61; for `Cc1cccc(C)c1NC(=O)CN(C)C`, 7.36. The compound `CC[n+]1c([O-])ccnc1[S-]` gave a pKa of 8.65.

Turning to `CCCCCCN(CCCCCC)c1ccccc1`, the pKa turned out to be 4.89. Still for that read-out and setting: for `CN1C2CCC(C2)N1C` the value was 6.89. Same read-out and setting: for `NCCC(=O)N[C@@H](Cc1c[nH]cn1)C(=O)[O-]` the value was 9.61; for `Nc1ncc(Br)s1`, 3.61.

`CCN(CC)CCOCC[NH+](CC)CC` registered a pKa of 8.61. On the same count and under the same terms, for `Nc1cnc([S-])nc1N` the value was 10.4; for `Cc1cccc(C)c1/C(=N/CCC[NH+](C)C)c1ccccc1`, 3.83; for `CCCSCCN(CC)CC`, 8.83.

Compound `C=C[C@]1(O)C[C@@H](C)N[C@H]2CCCC[C@@H]21` gave a pKa of 9.51.

On to `COc1ccc(C2CN2)cc1` (stereo not given), for which the pKa is 8.7. The compound `CSc1cccnc1` gave a pKa of 4.45. `NCCC[n+]1ccc2c([N+](=O)[O-])cccc2c1` registered a pKa of 8.48. Still for that read-out and setting: for `OC(CN1CCCC1)C[NH+]1CCCC1` the value was 7.75; for `CC1([NH3+])C[C@]1(C)N` (stereo not given in full), 5.94. The same measure, in the same setting: the figure for `OCc1nc2ccccc2[nH]1` is 4.82. Same read-out and setting: for `CCOC(C)=N` the value was 7.15; for `CCSC(=O)c1cccc(C)c1`, -4.77. In the case of `CCCN(CCO)CC(C)O` (stereo not given), the pKa is 8.9. Compound `c1ccc(-c2ccccn2)nc1` registered a pKa of 4.42. The same measure, in the same setting: the figure for `CC1C(=O)OC(C(C)(C)C)C1=O` (stereo not given) is 4.84. For the compound `Cc1cc2nc3ccc(N(C)C)cc3nc2cc1N`, the pKa stood at 7.18. The same measure, in the same setting: the figure for `CCN(CC)Cc1c([O-])c(Cl)cc(Cl)c1Cl` is 11.8; for `O=C(Nc1ccccn1)c1ccccc1` it is 3.33. On the same count and under the same terms, for `Nc1cn[nH]c1` the value was 5.57; for `CC(C)/N=C/N(C)c1ccc(-c2c[nH]cn2)cc1`, 10.4; for `O=C1[C@H]2C[C@H](CN3CCCC=C23)[C@@H]2CCCCN12`, 9.7. Consider `Cn1cncc1C[C@H](NC(=O)CC[NH3+])C(=O)[O-]`, for which the pKa amounted to 7.08. Same read-out and setting: for `Cc1ccc2ccc3ccc(C)nc3c2n1` the value was 6.15; for `CC(C)n1c(N)nc2ccc(/C(=C\C(N)=O)c3cccc(F)c3F)cc21`, 6.7; for `O=C([O-])CCCc1c[nH]cn1`, 7.62. On the same count and under the same terms, for `c1ccc2c3c([nH]c2c1)CNCC3` the value was 8.4.

`C=C[C@]1(O)CN2CC[C@H]1C[C@H]2[C@H](O)c1cc([O-])[nH+]c2ccccc12` came in with a pKa of 7.65. On the same count and under the same terms, the figure for `NCC(O)CN` is 9.64; for `CC[NH+](CC)CCCCCCNc1c2ccc(Cl)cc2nc2ccc(OC)cc12` it is 8.12; for `Clc1ccc(-c2ccc(Cl)cn2)nc1` it is 3.96.
